The subject of one test is A2780 cells. The test can be described thus: Cell Proliferation Assay (Cell Titer Glo), A2780. The test is classed as cell-based. Conditions: Homo sapiens; Cell Proliferation Assay, A2780; read-out: CPEC50 A2780. As to the method:
IV. Cell Proliferation Assay Protocol:
A2780, PC-3, or PC3MM cells were seeded at 1000 cells/well in 100 μL/well (10.000 cells/mL) growth media in 96-well plates. Cells were allowed to adhere to the bottom of plates for 3-5 hours in a 37° C. 5% CO2 incubator. Compounds were dissolved in DMSO and then transferred to the cell plates. The cells were incubated with the compounds for 3 days in a 37° C. 5% CO2 incubator. The growth medium containing the compounds was then removed from the cells and fresh medium was added, followed by 100 μL of Cell Titer Glo assay reagent (Promega). This mixture was shaken for 1 minute and then incubated without shaking for 10 minutes. Activity determinations for the compounds were made by detection on a Trilux Instrument.
For orientation: Cellular ATP, detected with luciferase, serves as a proxy for viable cell number.

For the next test, the system named is PC-3 cells. Briefly: Cell Proliferation Assay (Cell Titer Glo), PC-3 cell line. Format: cell-based. The conditions noted are these: Homo sapiens, PC-3, PC3 cells; read-out: CPEC50 PC3. In short, it runs like this:
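Cell Titer Glo luminescence, read after fresh medium replaced the dosing medium, gave viability of PC-3 cells plated at 1000 cells/well. Compounds, 1:3 serially diluted in DMSO at 500× and then in medium, were added after 3-5 h adhesion and incubated 3 days at 37° C.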

For another test, the target named is T1, PDK1 kinase (Homo sapiens, UniProt O15530).
T1 sequence (O15530 1-556): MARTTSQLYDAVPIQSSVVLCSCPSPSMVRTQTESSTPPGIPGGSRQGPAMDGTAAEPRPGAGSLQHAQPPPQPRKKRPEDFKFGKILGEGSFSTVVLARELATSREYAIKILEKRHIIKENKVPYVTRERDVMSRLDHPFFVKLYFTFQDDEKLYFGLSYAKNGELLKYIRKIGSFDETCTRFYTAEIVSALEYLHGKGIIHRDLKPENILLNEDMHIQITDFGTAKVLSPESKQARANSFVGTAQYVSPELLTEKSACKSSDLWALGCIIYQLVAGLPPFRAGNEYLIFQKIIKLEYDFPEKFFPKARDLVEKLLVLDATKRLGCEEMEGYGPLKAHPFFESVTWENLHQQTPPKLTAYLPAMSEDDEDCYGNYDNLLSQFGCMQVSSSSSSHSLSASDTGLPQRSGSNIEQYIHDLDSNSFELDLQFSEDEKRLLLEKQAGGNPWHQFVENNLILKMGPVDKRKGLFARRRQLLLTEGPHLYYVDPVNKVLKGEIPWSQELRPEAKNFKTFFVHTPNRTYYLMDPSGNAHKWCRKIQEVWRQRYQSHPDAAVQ
The test can be described thus: PDK1 Kinase Alpha Screen Assay. The test is classed as biochemical. In short, it runs like this: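 PDK1, 10 uM ATP, 50 nM biotin-PDK1-4 peptide; 50 mM Tris pH 7.5, 10 mM MgCl2, 0.1% BSA, 0.01% Tween-20, 2 mM DTT, 2.5% DMSO; 3-18 h. EDTA stop; AlphaScreen, phospho-Ser/Thr antibody, overnight RT.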

The mark [1] stands for this setting: head of the second part of Table 4: BV11261, read-out: PDK1 BV11261.

Like-named read-outs stand apart in the source and are kept apart here.

For the compound `COc1ncccc1-c1ccc2cnc(Nc3ccc(S(N)(=O)=O)cc3)nc2c1` [Compound 314, 4-(7-(2-methoxypyridin-3-yl)quinazolin-2-ylamino)benzenesulfonamide], in the test on A2780 cells, the EC50 lay within 5 to 10 µM.

As to `Cn1cc(-c2ccc3cnc(Nc4ccc(S(=O)(=O)N5CCOCC5)cc4)nc3c2)cn1` [Compound 317, 7-(1-methyl-1H-pyrazol-4-yl)-N-(4-(morpholinosulfonyl)phenyl)quinazolin-2-amine], in the test with A2780 cells, the EC50 is under 5 µM.

As to `NS(=O)(=O)c1ccc(Nc2ncc3cccc(C(=O)NCc4ccccn4)c3n2)cc1` [Compound 419, N-(pyridin-2-ylmethyl)-2-(4-sulfamoylphenylamino)quinazoline-8-carboxamide], in the test with A2780 cells, the EC50 lay in the range of 5 to 10 µM.

On to `CC(C)(C)OC(=O)N1CCC(Oc2c(Br)ccc3cnc(Nc4ccc(S(N)(=O)=O)cc4)nc23)CC1` [Compound 420, tert-butyl 4-(7-bromo-2-(4-sulfamoylphenylamino)quinazolin-8-yloxy)piperidine-1-carboxylate], for which the EC50 in the test with A2780 cells was under 5 µM.

For the compound `CC(C)Oc1cccc2cnc(Nc3cccnc3)nc12` [Compound 522, 8-isopropoxy-N-(pyridin-3-yl)quinazolin-2-amine], the EC50 with A2780 cells was 5 to 10 µM.

As for `Cn1cnnc1-c1cccc(Nc2ncc3cccc(-c4ccc(NCCN5CCCC5)nc4)c3n2)c1` [Compound 1021, N-(3-(4-methyl-4H-1,2,4-triazol-3-yl)phenyl)-8-(6-(2-(pyrrolidin-1-yl)ethylamino)pyridin-3-yl)quinazolin-2-amine], the EC50 with PC-3 cells was under 5 µM. Moreover, the IC50 on PDK1 kinase (read-out: PDK1 IC50) was under 5 µM.

In the case of `c1cc(Nc2ncc3cccc(-c4ccc(NCCN5CCCC5)nc4)c3n2)cc(N2CCOCC2)c1` [Compound 1022, N-(3-morpholinophenyl)-8-(6-(2-(pyrrolidin-1-yl)ethylamino)pyridin-3-yl)quinazolin-2-amine], the EC50 in the test on PC-3 cells is under 5 µM. Besides, the IC50 on PDK1 kinase (read-out: PDK1 IC50) is under 5 µM.

With `FC(F)(F)c1cccc(Nc2ncc3cccc(-c4ccc(NCCN5CCCC5)nc4)c3n2)c1` [Compound 1023, 8-(6-(2-(pyrrolidin-1-yl)ethylamino)pyridin-3-yl)-N-(3-(trifluoromethyl)phenyl)quinazolin-2-amine], the EC50 in the test with PC-3 cells was under 5 µM. Besides, the IC50 at PDK1 kinase (read-out: PDK1 IC50) was under 5 µM.

With `CC(=O)Nc1ccc(Nc2ncc3cccc(-c4ccc(NCCN5CCCC5)nc4)c3n2)cc1Cl` [Compound 1024, N-(2-chloro-4-(8-(6-(2-(pyrrolidin-1-yl)ethylamino)pyridin-3-yl)quinazolin-2-ylamino)phenyl)acetamide], the EC50 with PC-3 cells is under 5 µM. For the same compound, at PDK1 kinase (read-out: PDK1 IC50), the IC50 was under 5 µM.

For the compound `CC(C)Cn1cc(-c2ccc3cnc(Nc4ccc(N5CCN(C)CC5)cc4)nc3c2)cn1` [Compound 1025, 7-(1-isobutyl-1H-pyrazol-4-yl)-N-(4-(4-methylpiperazin-1-yl)phenyl)quinazolin-2-amine], the EC50 in the test with PC-3 cells is under 5 µM. The IC50 at PDK1 kinase (read-out: PDK1 IC50) was under 5 µM.

On to `Cc1ccc(Nc2ncc3ccc(O)c(C4CCN(C(C)C)CC4)c3n2)cc1NS(C)(=O)=O` [Compound 1026, N-(5-(7-hydroxy-8-(1-isopropylpiperidin-4-yl)quinazolin-2-ylamino)-2-methylphenyl)methanesulfonamide], for which the EC50 in the test with PC-3 cells was under 5 µM. For the same compound, on PDK1 kinase (read-out: PDK1 IC50), the IC50 is under 5 µM.

Turning to `CC(=O)Nc1ccc(Nc2ncc3cccc(-c4ccc(NCCN5CCCC5)nc4)c3n2)cc1C` [Compound 1027, N-(2-methyl-4-(8-(6-(2-(pyrrolidin-1-yl)ethylamino)pyridin-3-yl)quinazolin-2-ylamino)phenyl)acetamide], the EC50 with PC-3 cells was under 5 µM. The IC50 on PDK1 kinase (read-out: PDK1 IC50) is under 5 µM.

Regarding `CS(=O)(=O)c1ccc(Nc2ncc3cccc(-c4ccc(NCCN5CCCC5)nc4)c3n2)cc1` [Compound 1028, N-(4-(methylsulfonyl)phenyl)-8-(6-(2-(pyrrolidin-1-yl)ethylamino)pyridin-3-yl)quinazolin-2-amine], in the test on PC-3 cells, the EC50 lay within 5 to 10 µM. Besides, the IC50 on PDK1 kinase (read-out: PDK1 IC50) is under 5 µM.

As to `CN1CCN(c2ccc(-c3cccc4cnc(Nc5ccc(S(=O)(=O)N6CCOCC6)cc5)nc34)cn2)CC1` [Compound 1029, 8-(6-(4-methylpiperazin-1-yl)pyridin-3-yl)-N-(4-(morpholinosulfonyl)phenyl)quinazolin-2-amine], in the test with PC-3 cells, the EC50 was under 5 µM. Besides, at PDK1 kinase (read-out: PDK1 IC50), the IC50 is under 5 µM.

On to `Cc1cc(Nc2ncc3ccc(O)c(C4CCN(C(C)C)CC4)c3n2)ccc1F` [Compound 1030, 2-(4-fluoro-3-methylphenylamino)-8-(1-isopropylpipenidin-4-yl)quinazolin-7-ol], for which the EC50 in the test on PC-3 cells fell in the range of 5 to 10 µM. At PDK1 kinase (read-out: PDK1 IC50), the IC50 was under 5 µM.

As for `C#Cc1cc(OC2CCCNCC2)c2nc(Nc3ccc(N4CCOCC4)cc3)ncc2c1` (centres unmarked) [Compound 1031, 8-(azepan-4-yloxy)-6-ethynyl-N-(4-morpholinophenyl)quinazolin-2-amine], in the test with PC-3 cells, the EC50 is under 5 µM. For the same compound, the IC50 at PDK1 kinase (setting [1]) was under 5 µM.

Turning to `C#Cc1cc(OC2CCNCC2)c2nc(Nc3ccc(C(=O)N4CCOCC4)cc3)ncc2c1Cl` [Compound 1032, (4-(5-chloro-6-ethynyl-8-(piperidin-4-yloxy)quinazolin-2-ylamino)phenyl)(morpholino)methanone], the EC50 in the test on PC-3 cells was under 5 µM. Also, the IC50 on PDK1 kinase (setting [1]) was under 5 µM.

Consider `COc1c(-c2cnn(C)c2)cc(Cl)c2cnc(Nc3ccc(C(=O)N4CCOCC4)cc3)nc12` [Compound 1033, (4-(5-chloro-8-methoxy-7-(1-methyl-1H-pyrazol-4-yl)quinazolin-2-ylamino)phenyl)(morpholino)methanone], for which, in the test with PC-3 cells, the EC50 is under 5 µM. In addition, the IC50 on PDK1 kinase (setting [1]) is under 5 µM.

Take `COc1c(-c2cnn(C)c2)cc(Cl)c2cnc(Nc3ccc(C(=O)NC(C)C)cc3)nc12` [Compound 1034, 4-(5-chloro-8-methoxy-7-(1-methyl-1H-pyrazol-4-yl)quinazolin-2-ylamino)-N-isopropylbenzamide]: in the test on PC-3 cells, the EC50 is under 5 µM. Moreover, the IC50 on PDK1 kinase (setting [1]) was under 5 µM.

On to `COc1c(-c2cnn(C)c2)cc(Cl)c2cnc(Nc3ccc(N4CCOCC4)cc3)nc12` [Compound 1035, 5-chloro-8-methoxy-7-(1-methyl-1H-pyrazol-4-yl)-N-(4-morpholinophenyl)quinazolin-2-amine], for which the EC50 in the test with PC-3 cells is under 5 µM. Further, the IC50 on PDK1 kinase (setting [1]) is under 5 µM.

For the compound `COc1c(-c2cnn(C)c2)cc(Cl)c2cnc(Nc3cccc(N4CCOCC4)c3)nc12` [Compound 1036, 5-chloro-8-methoxy-7-(1-methyl-1H-pyrazol-4-yl)-N-(3-morpholinophenyl)quinazolin-2-amine], the EC50 in the test on PC-3 cells is under 5 µM. Moreover, the IC50 at PDK1 kinase (setting [1]) was under 5 µM.

`COc1c(-c2cnn(C)c2)cc(Cl)c2cnc(Nc3cc(CN(C)C)cc(NC(C)=O)c3)nc12` [Compound 1037, N-(3-(5-chloro-8-methoxy-7-(1-methyl-1H-pyrazol-4-yl)quinazolin-2-ylamino)-5-((dimethylamino)methyl)phenyl)acetamide]: the EC50 with PC-3 cells is under 5 µM. Moreover, the IC50 on PDK1 kinase (setting [1]) is under 5 µM.

With `COc1c(-c2cnn(C)c2)cc(Cl)c2cnc(Nc3ccc(C(=O)NC4CC4)cc3)nc12` [Compound 1038, 4-(5-chloro-8-methoxy-7-(1-methyl-1H-pyrazol-4-yl)quinazolin-2-ylamino)-N-cyclopropylbenzamide], in the test with PC-3 cells, the EC50 is under 5 µM. For the same compound, at PDK1 kinase (setting [1]), the IC50 was under 5 µM.

As for `C#Cc1cc2cnc(Nc3ccc(C(=O)NC(C)C)cc3)nc2cc1-c1ccc2c(c1)CCNC2=O` [Compound 1039, 4-(6-ethynyl-7-(1-oxo-1,2,3,4-tetrahydroisoquinolin-6-yl)quinazolin-2-ylamino)-N-isopropylbenzamide], the EC50 in the test on PC-3 cells was under 5 µM. Also, the IC50 at PDK1 kinase (setting [1]) is under 5 µM.

For `CC(C)NC(=O)c1ccc(Nc2ncc3ccc(-c4ccc5c(c4)CCNC5=O)cc3n2)cc1` [Compound 1040, N-isopropyl-4-(7-(1-oxo-1,2,3,4-tetrahydroisoquinolin-6-yl)quinazolin-2-ylamino)benzamide], the EC50 with PC-3 cells was 5 to 10 µM. Also, the IC50 at PDK1 kinase (setting [1]) was under 5 µM.

Consider `C#Cc1cc2cnc(Nc3ccc(C(=O)N4CCOCC4)cc3)nc2cc1-c1ccc2c(c1)CCNC2=O` [Compound 1041, 6-(6-ethynyl-2-(4-(morpholine-4-carbonyl)phenylamino)quinazolin-7-yl)-3,4-dihydroisoquinolin-1(2H)-one], for which the EC50 in the test with PC-3 cells was 5 to 10 µM. In addition, the IC50 at PDK1 kinase (setting [1]) was under 5 µM.

These data come from patent publication US7932262B2 (Novartis AG, priority 2006, dated 2011).
